Measured values: PMC10812672, “Short Antimicrobial Peptide Derived from the Venom Gland Transcriptome of Pamphobeteus verdolaga Increases Gentamicin Susceptibility of Multidrug-Resistant Klebsiella pneumoniae” (Antibiotics, 2023)
Like-named read-outs stand apart in the source and are kept apart here. Ends that are not written are not given here.

Tests used:
[1] = system: E. coli ATCC® 25922; type: cell-based, Escherichia coli; details: CLSI broth microdilution, Mueller-Hinton broth, peptide 30 µM, ~6 × 10^6 CFU/mL, 24 h 37 °C, OD600; triplicate, three independent assays; NA = no activity
Description: (§1) Activity screening was conducted using the broth microdilution method at a fixed peptide concentration of 30 µM against E. coli ATCC® 8739 and 25922, as well as S. aureus ATCC® 6538 and 29213. The bacterial density used for screening was approximately 6 × 10^6 CFU/mL [30]. Peptide activity measurements were conducted in terms of the growth inhibition percentage. No dose-response curves were generated during the screening phase as a resource optimization strategy in the initial activity evaluation. […] For S. aureus ATCC® 6538 and S. aureus ATCC® 29213, growth inhibition ranged from 0% to 140% and 0% to 98%, respectively (Table 1).
(§2) The evaluation of the antimicrobial activity of the peptides was conducted using the CLSI’s broth microdilution method for bacterial susceptibility testing. For the screening phase, peptides were evaluated at a single 30 μM concentration, in triplicate and in three independent assays, against the E. coli ATCC® 8739, E. coli ATCC® 25922, S. aureus ATCC® 6538, or S. aureus ATCC® 29213 reference USP and CLSI strains. For the determination of MIC, MBC, or IC50, peptides or antibiotics were evaluated in concentrations between 1.56–200 µM. These evaluations were conducted in triplicate and in three independent assays, against the E. coli ATCC® 25922, S. aureus ATCC® 29213, E. faecalis ATCC® 49532, P. aeruginosa ATCC® 9027, and K. pneumoniae ATCC® BAA-1705, or the clinically isolated MDR strain. In detail, 1 mL of a glycerol stock solution of the ATCC® or clinically isolated bacterial strain was added to 9 mL of Mueller-Hinton Broth and incubated for 18 h, 180 rpm and 37 °C (Incubator 1000, Heidolph Instruments, Schwabach, Germany). After the incubation, 1 mL of the previous solution was transferred to a new recipient containing 9 mL of fresh Mueller-Hinton broth and incubated for 4 h, 180 rpm and 37 °C (Incubator 1000, Heidolph Instruments, Schwabach, Germany). During the second incubation, the peptides or the antibiotics were dissolved in PBS pH 7.20 in concentrations between 19.53–2500 µM (MC5 Micro Balance, Sartorius AG, Göttingen, Germany). An amount of 10 µL of either peptide or antibiotic was dispensed in triplicate in 96-well flat bottom culture plates, along with 10 µL of PBS (Negative activity control), BTM-P1 (Positive activity control), or 10 µL of Mueller-Hinton broth (Blank); then, 110 µL of Mueller-Hinton broth was poured in all wells. Following this, the bacteria were suspended in Mueller-Hinton broth up to a concentration of approximately 1.50 × 10^8 CFU/mL, as measured by optical density at 600 nm between 0.06 to 0.11 (0.5 McFarland standard), in a Multiskan SkyHigh spectrophotometer (ThermoFisher Scientific, Waltham, MA, USA). Amounts of 5 µL of the 1.50 × 10^8 CFU/mL suspension were added to each well (except for the blank) for a final well concentration of approximately 6 × 10^6 CFU/mL. The plate was incubated for 24 h at 37 °C (BE 500, Memmert GmbH, Büchenbach, Germany) and optical density was measured at 600 nm in a Multiskan SkyHigh spectrophotometer (ThermoFisher Scientific, Waltham, MI, USA). Following the measurement of optical density, plates were visually inspected to determine the MIC. Subsequently, 100 µL of the concentration associated to the MIC and 100 µL of the next higher concentration were added to Petri dishes containing Mueller-Hinton Agar. The dishes were then incubated for 24 h at 37 °C (BE 500, Memmert GmbH, Büchenbach, Germany). After incubation, the Petri dishes were visually inspected, and the MBC was determined in the absence of growth. IC50 values were interpolated from regressions with correlation values above 0.70. Growth inhibition percentages were calculated as follows: Growth inhibition %=1−AbsPEPTIDE or ANTIBIOTIC−Median AbsBLANK/Median AbsPBS−Median AbsBLANK×100

[2] = system: E. coli ATCC® 8739; type: cell-based, Escherichia coli; details: CLSI broth microdilution, Mueller-Hinton broth, peptide 30 µM, ~6 × 10^6 CFU/mL, 24 h 37 °C, OD600; triplicate, three independent assays; NA = no activity
Description: as §1, §2

[3] = system: E. coli ATCC® 25922; type: cell-based, Escherichia coli; details: for MIC: 1.56–200 µM, visual inspection, triplicate, three independent assays; for MIC / MBC: 24 h 37 °C; for MBC: plating on Mueller-Hinton agar, absence of growth
Description: (§3) The nine AMPs identified in the initial screening were evaluated at concentrations between 1.56–200 µM, against E. coli ATCC® 25922, S. aureus ATCC® 29213, E. faecalis ATCC® 49532, P. aeruginosa ATCC® 9027, and K. pneumoniae ATCC® BAA-1705 (Supplementary Figures S2–S6). […] Only PvAMP66 and PvAMP172 reached the MBC for S. aureus at 50 µM and 100 µM, respectively (Table 2).
as §2

[4] = system: S. aureus ATCC® 29213; type: cell-based, Staphylococcus aureus; details: for MIC: 1.56–200 µM, 24 h 37 °C, visual inspection, triplicate, three independent assays; for IC50: growth inhibition OD600, 95% confidence interval in parentheses
Description: as §3, §2

[5] = system: P. aeruginosa ATCC® 9027; type: cell-based, Pseudomonas aeruginosa; details: for MIC: 1.56–200 µM, 24 h 37 °C, visual inspection, triplicate, three independent assays; for IC50: growth inhibition OD600, 95% confidence interval in parentheses; for MBC: plating on Mueller-Hinton agar, absence of growth
Description: as §3, §2

[6] = system: multidrug-resistant (MDR) strain of K. pneumoniae, clinical isolate; test: microbe, parasite or virus in culture; type: cell-based, Klebsiella pneumoniae
Description: A multidrug-resistant (MDR) strain of K. pneumoniae was identified and isolated from a tertiary-level hospital in Medellin, Colombia, using the VITEK-2 system (bioMérieux, Marcy-l’Étoile, France). The MDR strain was evaluated against several antibiotics at concentrations of 1.56–100 μM. […] In contrast, the strain was susceptible to doxycycline (Supplementary Figure S7g) and chloramphenicol (Supplementary Figure S7h), with MICs of 50 μM and 100 µM, respectively (Table 3). […] All of P. verdolaga’s AMPs were evaluated against the clinical isolate at concentrations of 1.56–200 µM (Supplementary Figure S8). […] A growth inhibition kinetic assay was conducted. […] All of P. verdolaga’s peptides at 100 μM induced morphological changes in the MDR K. pneumoniae, indicating membrane interactions, even though no significant inhibition was observed (Supplementary Figure S9).
as §2, with “Growth inhibition percentages were calculated as follows: Growth inhibition %=1−AbsPEPTIDE or ANTIBIOTIC−Median AbsBLANK/Median AbsPBS−Median AbsBLANK×100” left out

[7] = system: MDR K. pneumoniae; test: Isobologram analysis and FICI, PvAMP66 with gentamicin; type: cell-based, Klebsiella pneumoniae
Description: Given the intermediate resistance to gentamicin, an isobologram analysis was used as a proof-of-concept to evaluate the interaction between PvAMP66 and the antibiotic. The growth inhibition of the clinical isolate was measured using peptide concentrations of 0.10–100 µM, and gentamicin concentrations of 0.10–50 µM (Supplementary Figure S10). Combined IC50 values were calculated and plotted in a graph with a secant line representing the IC50 values for PvAMP66 and gentamicin when used alone (Figure 2a). […] The concentrations adjacent to the aforementioned data point were evaluated. […] Additionally, a Fractional Inhibitory Concentration Index (FICI) of 0.59 was obtained.
For the isobologram analysis concentrations, ranges of 1.56 µM to 200 µM of the peptide and 0.07 µM to 100 µM of the gentamicin were used. The experiments were conducted in triplicate and repeated in two independent assays. The IC50 for each combination was determined using either logarithmic or linear regression. Then, when achieving 50% growth inhibition, the concentrations of the peptide and gentamicin were recorded and used to create an isobologram graph with a ‘peptide concentration’ vs. ‘gentamicin concentration’ plot. […] The fractional inhibitory concentration index was calculated as follows: FICI=Combined MICAntibiotic/MICAntibiotic+Combined MICPeptide/MICPeptide

[8] = system: S. aureus ATCC® 29213; type: cell-based, Staphylococcus aureus; details: CLSI broth microdilution, Mueller-Hinton broth, peptide 30 µM, ~6 × 10^6 CFU/mL, 24 h 37 °C, OD600; triplicate, three independent assays; NA = no activity
Description: as §1, §2

[9] = system: S. aureus ATCC® 6538; type: cell-based, Staphylococcus aureus; details: CLSI broth microdilution, Mueller-Hinton broth, peptide 30 µM, ~6 × 10^6 CFU/mL, 24 h 37 °C, OD600; triplicate, three independent assays; NA = no activity
Description: as §1, §2

[10] = growth inhibition OD600, interpolated from regression, 95% confidence interval in parentheses, read-out: IC50

## CRKLCFRNRCLTYCRGR-NH2 (disulfide (positions not given here)) [PvAMP172, predicted P. verdolaga AMP]
[1]
  E. coli ATCC® 25922 (Inhibition %): 47.43 ± 2.76 %
[2]
  E. coli ATCC® 8739 (Inhibition %): 64.78 ± 5.46 %
[3]
  MIC: 50 µM
  MBC: 50 µM
[3]; [10]
  IC50: 42.9 µM
[4]
  MIC: 100 µM
[4]; plating on Mueller-Hinton agar, absence of growth
  MBC: 100 µM
[5]
  MIC: 50 µM
  IC50: 48.4 µM
  MBC: 50 µM

## CNC(C)C1CCC(N)C(OC2C(N)CC(N)C(OC3OCC(C)(O)C(NC)C3O)C2O)O1 (stereo not shown) [Gentamicin, gentamicin]
[6]; Klebsiella pneumoniae
  IC50: 33.4 µM
[6]; Klebsiella pneumoniae, MDR K. pneumoniae clinical isolate
  MIC: 9.31 µg/mL
[6]; MDR K. pneumoniae clinical isolate, CLSI classification
  Classification at 10^6 CFU/mL: Intermediate resistant
[6]; MDR K. pneumoniae clinical isolate, peptides 1.56–200 µM, antibiotics 1.56–100 µM, 24 h 37 °C
  MIC: 50.00 µM
[7]; Klebsiella pneumoniae, with PvAMP66 9.85 µM, read-out: combined IC50 for gentamicin
  IC50: 3.12 µM
[7]; with 12.50 µM PvAMP66
  combined MIC, gentamicin: 4.70 µM

## IIKKIWK-NH2 [PvAMP32]
[1]
  E. coli ATCC® 25922 (Inhibition %): 21.19 ± 3.82 %
[2]
  E. coli ATCC® 8739 (Inhibition %): 30.73 ± 5.21 %
[8]
  S. aureus ATCC® 29213 (Inhibition %): 33.17 ± 8.46 %
[9]
  S. aureus ATCC® 6538 (Inhibition %): 43.62 ± 4.90 %
[3]
  MIC: 100 µM
  MBC: 100 µM
[3]; [10]
  IC50: 94.7 µM
[4]
  MIC: 50 µM
  IC50: 108 µM
[5]
  MIC: 100 µM
  IC50: 124 µM
  MBC: 100 µM

## QCRKLCFRNRCLTYCRGR-NH2 (disulfide (positions not given here)) [PvAMP177, predicted P. verdolaga AMP]
[1]
  E. coli ATCC® 25922 (Inhibition %): 56.76 ± 3.64 %
[2]
  E. coli ATCC® 8739 (Inhibition %): 93.07 ± 7.11 %
[3]
  MIC: 25 µM
  MBC: 50 µM
[3]; [10]
  IC50: 25.3 µM
[3]; same result in µg/mL
  IC50: 6.64 µg/mL
[4]
  IC50: 138 µM
[5]
  MIC: 50 µM
  IC50: 25.9 µM
  MBC: 50 µM

## GRIFRLLRK-NH2 [PvAMP82]
[1]
  E. coli ATCC® 25922 (Inhibition %): 74.94 ± 14.27 %
[2]
  E. coli ATCC® 8739 (Inhibition %): 64.01 ± 4.28 %
[8]
  S. aureus ATCC® 29213 (Inhibition %): 43.44 ± 10.24 %
[9]
  S. aureus ATCC® 6538 (Inhibition %): 43.03 ± 6.37 %
[3]
  MIC: 100 µM
  MBC: 100 µM
[5]
  MIC: 200 µM
  MBC: 200 µM
